Laboratory results: patent US11236047B2 (ASTEX THERAPEUTICS LIMITED, priority 2017, dated 2022)
Like-named read-outs stand apart in the source and are kept apart here.

Assays:
SN40R2 cells = test: Protocol B: SN40R2 CellTiter-Glo luminescent cell viability assay; settings: for IC50: read-out: SN40R2 IC50 (μM) (Protocol B)
Description: Protocol B: SJSA-1 and SN40R2 Assays
The CellTiter-Glo® Luminescent Cell Viability Assay is a homogeneous method to determine the number of viable cells in culture based on quantitation of the ATP present, which signals the presence of metabolically active cells. […] 100 μl of CTG reagent (Promega #G7573) was added to all wells and luminescence was measured on the topcount. The EC50 values were determined from a sigmoidal 4 parameter curve fit using XLfit in conjunction with Activity Base (IDBS; Guildford, Surrey, UK).

SJSA-1 cells = test: Protocol B: SJSA-1 CellTiter-Glo luminescent cell viability assay
[1] = read-out: SN40R2 % inhibition at 10
[2] = read-out: SN40R2 % inhibition at 10, Protocol B, SN40R2, at 10 μM
[3] = Homo sapiens, SJSA-1, read-out: SJSA1 IC50 (μM) (Protocol B), SJSA-1, Protocol B
[4] = read-out: SJSA1 IC50 (μM) (Protocol B), SJSA-1, Protocol B

Row | Compound | inhibition at 10 µM (SN40R2 cells; [1]) | further results
1 | CC[C@@](O)(c1cc(F)c2c(c1)C(=O)N(Cc1ncc(Cl)cn1)[C@@]2(OC[C@@H](C)O)c1ccc(Cl)cc1)C1CCN(C)CC1 [Example 562, (3R)-3-(4-chlorophenyl)-2-[(5-chloropyrimidin-2-yl)methyl]-4-fluoro-6-[(1S)-1-hydroxy-1-(1-methylpiperidin-4-yl)propyl]-3-[(2R)-2-hydroxypropoxy]-2,3-dihydro-1H-isoindol-1-one] | 1% | 
2 | CCC(O)(c1cc(F)c2c(c1)C(=O)N(Cc1ncc(C#N)cn1)[C@@]2(OC1CCC(O)C1)c1ccc(Cl)cc1)c1cn(C)cn1 (stereo partly drawn) [Example 461, 2-{[(1R)-1-(4-chlorophenyl)-7-fluoro-5-[1-hydroxy-1-(1-methyl-1H-imidazol-4-yl)propyl]-1-[(trans-3-hydroxycyclopentyl)oxy]-3-oxo-2,3-dihydro-1H-isoindol-2-yl]methyl}pyrimidine-5-carbonitrile] | 6% | 
3 | Cn1cnc(C(O)(c2cc(F)c3c(c2)C(=O)N(Cc2ccc(C#N)cn2)[C@@]3(O[C@H]2CCOC2)c2ccc(Cl)cc2)C2CC2)c1 (stereo partly drawn) [Example 434, 6-{[(1R)-1-(4-chlorophenyl)-5-[cyclopropyl(hydroxy)(1-methyl-1H-imidazol-4-yl)methyl]-7-fluoro-3-oxo-1-[(3S)-oxolan-3-yloxy]-2,3-dihydro-1H-isoindol-2-yl]methyl}pyridine-3-carbonitrile] | 7% | 
4 | CCC(O)(c1cc(F)c2c(c1)C(=O)N(Cc1ncc(Cl)cn1)[C@@]2(OC[C@@H](C)O)c1ccc(Cl)cc1)C1(F)CCN(C)CC1 (single isomer, unassigned) [Example 572] |  | inhibition at 10 µM (SN40R2 cells; [2]): 23%
5 | CC(O)(c1cc(F)c2c(c1)C(=O)N(Cc1ccc(C#N)cn1)[C@@]2(O[C@H]1CCOC1)c1ccc(Cl)cc1)C1(F)CCOCC1 (stereo partly drawn) [Example 388, 6-{[(1R)-1-(4-chlorophenyl)-7-fluoro-5-[1-(4-fluorooxan-4-yl)-1-hydroxyethyl]-3-oxo-1-[(3S)-oxolan-3-yloxy]-2,3-dihydro-1H-isoindol-2-yl]methyl}pyridine-3-carbonitrile] | 4% | 
6 | CC[C@](O)(c1cc(F)c2c(c1)C(=O)N(Cc1ncc(Cl)cn1)[C@@]2(OCCO)c1ccc(Cl)cc1)C1(F)CCOCC1 [Example 502, (3R)-3-(4-chlorophenyl)-2-[(5-chloropyrimidin-2-yl)methyl]-4-fluoro-6-[(1S)-1-(4-fluorooxan-4-yl)-1-hydroxypropyl]-3-(2-hydroxyethoxy)-2,3-dihydro-1H-isoindol-1-one] | 11% | 
7 | CCC(O)(c1cc(F)c2c(c1)C(=O)N(Cc1ccc(C#N)cn1)[C@@]2(O[C@H]1CCOC1)c1ccc(Cl)cc1)c1ccn(C)c(=O)c1 (stereo partly drawn) [Example 374, 6-{[(1R)-1-(4-chlorophenyl)-7-fluoro-5-[1-hydroxy-1-(1-methyl-2-oxo-1,2-dihydropyridin-4-yl)propyl]-3-oxo-1-[(3S)-oxolan-3-yloxy]-2,3-dihydro-1H-isoindol-2-yl]methyl}pyridine-3-carbonitrile] | 2% | 
8 | CC[C@@](O)(c1cc(F)c2c(c1)C(=O)N(Cc1ncc(Cl)cn1)[C@@]2(OC)c1ccc(Cl)cc1)C1CCN(CCO)CC1 (single isomer, unassigned) [Example 550] | 33% | 
9 | [2H]C([2H])(O)C([2H])([2H])O[C@]1(c2ccc(Cl)cc2)c2c(F)cc(C(O)(CC)C3(F)CCN(C)CC3)cc2C(=O)N1Cc1ncc(Cl)cn1 (stereo partly drawn) [Example 580, (3R)-3-(4-chlorophenyl)-2-[(5-chloropyrimidin-2-yl)methyl]-4-fluoro-6-[1-(4-fluoro-1-methylpiperidin-4-yl)-1-hydroxypropyl]-3-[2-hydroxy(1,1,2,2-tetradeutero)ethoxy]-2,3-dihydro-1H-isoindol-1-one] |  | inhibition at 10 µM (SN40R2 cells; [2]): 13%
10 | CC(O)(c1cc(F)c2c(c1)C(=O)N(Cc1ccc(C#N)cn1)[C@@]2(OC[C@H](O)CF)c1ccc(Cl)cc1)C1(F)CCOCC1 (stereo partly drawn) [Example 579, 6-{[(1R)-1-(4-chlorophenyl)-7-fluoro-1-[(2S)-3-fluoro-2-hydroxypropoxy]-5-[1-(4-fluorooxan-4-yl)-1-hydroxyethyl]-3-oxo-2,3-dihydro-1H-isoindol-2-yl]methyl}pyridine-3-carbonitrile] | 4% | 
11 | CCC(O)(c1cc(F)c2c(c1)C(=O)N(Cc1ccc(C#N)cn1)[C@@]2(O[C@H]1C[C@@H](O)C1)c1ccc(Cl)cc1)c1cnn(C)c1 (stereo partly drawn) [Example 339, 6-{[(1R)-1-(4-chlorophenyl)-7-fluoro-5-[1-hydroxy-1-(1-methyl-1H-pyrazol-4-yl)propyl]-3-oxo-1-[cis-3-hydroxycyclobutoxy]-2,3-dihydro-1H-isoindol-2-yl]methyl}pyridine-3-carbonitrile] | 3% | 
12 | CO[C@]1(c2ccc(Cl)cc2)c2ccc(C(C)(O)CN3CCN(C)CC3)cc2C(=O)N1Cc1ccc(Cl)cn1 (stereo partly drawn) [Example 255, (3R)-3-(4-chlorophenyl)-2-[(5-chloropyridin-2-yl)methyl]-6-[2-hydroxy-1-(4-methylpiperazin-1-yl)propan-2-yl]-3-methoxy-2,3-dihydro-1H-isoindol-1-one] |  | IC50 (SN40R2 cells): 7.1 µM
13 | CC(=O)N1CCC(C(C)(O)c2cc(F)c3c(c2)C(=O)N(Cc2ncc(Cl)cn2)[C@@]3(O[C@H]2C[C@@H](O)C2)c2ccc(Cl)cc2)CC1 (single isomer, unassigned) [Example 425] | 7% | 
14 | CCC(O)(c1cc(F)c2c(c1)C(=O)N(Cc1ccc(C#N)cn1)[C@@]2(OCCO)c1ccc(Cl)cc1)c1cn(C)cn1 (stereo partly drawn) [Example 364, 6-{[(1R)-1-(4-chlorophenyl)-7-fluoro-5-[1-hydroxy-1-(1-methyl-1H-imidazol-4-yl)propyl]-1-(2-hydroxyethoxy)-3-oxo-2,3-dihydro-1H-isoindol-2-yl]methyl}pyridine-3-carbonitrile] | 9% | 
15 | CC[C@@](O)(c1cc(F)c2c(c1)C(=O)N(Cc1ncc(Cl)cn1)[C@@]2(OCCO)c1ccc(Cl)cc1)C1CCN(C)CC1 [Example 559, (3R)-3-(4-chlorophenyl)-2-[(5-chloropyrimidin-2-yl)methyl]-4-fluoro-6-[(1S)-1-hydroxy-1-(1-methylpiperidin-4-yl)propyl]-3-(2-hydroxyethoxy)-2,3-dihydro-1H-isoindol-1-one] | 1% | 
16 | CC[C@](O)(c1cc(F)c2c(c1)C(=O)N(Cc1ncc(Cl)cn1)[C@@]2(OC)c1ccc(Cl)cc1)C1CCN(C)CC1 [Example 566, (3R)-3-(4-chlorophenyl)-2-[(5-chloropyrimidin-2-yl)methyl]-4-fluoro-6-[(1R)-1-hydroxy-1-(1-methylpiperidin-4-yl)propyl]-3-methoxy-2,3-dihydro-1H-isoindol-1-one] | 46% | 
17 | COc1nc(C)ccc1CN1C(=O)c2cc(C(C)(C)O)cc(F)c2[C@]1(OC)c1ccc(Cl)cc1 [Example 315, (3R)-3-(4-chlorophenyl)-4-fluoro-6-(2-hydroxypropan-2-yl)-3-methoxy-2-[(2-methoxy-6-methylpyridin-3-yl)methyl]-2,3-dihydro-1H-isoindol-1-one] |  | IC50 (SN40R2 cells): 13 µM
18 | CCC(O)(c1cc(F)c2c(c1)C(=O)N(Cc1ncc(C#N)cn1)[C@@]2(O[C@H]1CCOC1)c1ccc(Cl)cc1)c1ccn(C)n1 (single isomer, unassigned) [Example 489] |  | inhibition at 10 µM (SN40R2 cells; [2]): -9%
19 | CN1CCN(CC(C)(O)c2cc(F)c3c(c2)C(=O)N(Cc2ccc(Cl)cc2S(C)(=O)=O)[C@@]3(OC2CCOC2)c2ccc(Cl)cc2)CC1 (single isomer, unassigned) [Example 67] |  | IC50 (SN40R2 cells; 72 h): 9.4 µM
20 | CC[C@@](O)(c1cc(F)c2c(c1)C(=O)N(Cc1ncc(Cl)cn1)[C@@]2(OC)c1ccc(Cl)cc1)C1CCN(C)CC1 [Example 553, (3R)-3-(4-chlorophenyl)-2-[(5-chloropyrimidin-2-yl)methyl]-4-fluoro-6-[(1S)-1-hydroxy-1-(1-methylpiperidin-4-yl)propyl]-3-methoxy-2,3-dihydro-1H-isoindol-1-one] | 24% | 
21 | Cn1cc(C(C)(O)c2cc(F)c3c(c2)C(=O)N(Cc2ccc(F)cn2)[C@@]3(OCC2(C(N)=O)CC2)c2ccc(Cl)cc2)cn1 (stereo partly drawn) [Example 209, 1-({[(1R)-1-(4-chlorophenyl)-7-fluoro-2-[(5-fluoropyridin-2-yl)methyl]-5-[1-hydroxy-1-(1-methyl-1H-pyrazol-4-yl)ethyl]-3-oxo-2,3-dihydro-1H-isoindol-1-yl]oxy}methyl)cyclopropane-1-carboxamide] |  | IC50 (SJSA-1 cells; [3]): 0.45 µM
22 | CCn1cc(C(C)(O)c2cc(F)c3c(c2)C(=O)N(Cc2ccc(Cl)cn2)[C@@]3(OCC2(O)CC2)c2ccc(Cl)cc2)cn1 (single isomer, unassigned) [Example 184] |  | IC50 (SJSA-1 cells; [4]): 0.14 µM
23 | CO[C@]1(c2ccc(Cl)cc2)c2c(F)cc(C(C)(O)c3ncc[nH]3)cc2C(=O)N1Cc1ccc(Cl)cn1 (single isomer, unassigned) [Example 164] |  | IC50 (SJSA-1 cells; [4]): 2.2 µM
24 | Cc1nnc(C(C)(O)c2cc(F)c3c(c2)C(=O)N(Cc2ccc(Cl)cn2)[C@@]3(OCC2(O)CC2)c2ccc(Cl)cc2)o1 (single isomer, unassigned) [Example 185] |  | IC50 (SJSA-1 cells; [4]): 2.2 µM
25 | Cn1cc(C(C)(O)c2cc(F)c3c(c2)C(=O)N(Cc2ccc(Cl)c[n+]2[O-])[C@@]3(OCC2(O)CC2)c2ccc(Cl)cc2)cn1 (stereo partly drawn) [Example 409, (3R)-2-[(5-chloro-1-oxo-1λ^5-pyridin-2-yl)methyl]-3-(4-chlorophenyl)-4-fluoro-6-[1-hydroxy-1-(1-methyl-1H-pyrazol-4-yl)ethyl]-3-[(1-hydroxycyclopropyl)methoxy]-2,3-dihydro-1H-isoindol-1-one] |  | IC50 (SJSA-1 cells; [3]): 0.41 µM
26 | Cn1cc(C(C)(O)c2cc(F)c3c(c2)C(=O)N(Cc2ccc(Cl)cn2)[C@@]3(OCC2(O)CC2)c2ccc(Cl)cc2)cn1 (single isomer, unassigned) [Example 199] |  | IC50 (SJSA-1 cells; [4]): 0.83 µM
